Laboratory results reported in ChEMBL document CHEMBL2021798, “Discovery of new quinoline ether inhibitors with high affinity and selectivity for PDGFR tyrosine kinases” (Bioorg Med Chem Lett, 2012).

Assays:
[1] = Terminal half life in dog at 20 mg/kg, iv; assay type: ADME, organism-based, Canis lupus familiaris; parameters: dose 20 mg/kg, route intravenous; conditions: in vivo, read-out: beta t1/2 (converted)
Rattus norvegicus [2] = assay: Volume of distribution at steady state in rat at 20 mg/kg, po; assay type: ADME, organism-based; parameters: dose 20 mg/kg, route oral; conditions: in vivo
Canis familiaris [3] = assay: Volume of distribution at steady state in dog at 20 mg/kg, po; assay type: ADME, organism-based, Canis lupus familiaris; parameters: dose 20 mg/kg, route oral; conditions: in vivo
[4] = Clearance in dog at 20 mg/kg, po; assay type: ADME, organism-based, Canis lupus familiaris; parameters: dose 20 mg/kg, route oral; conditions: in vivo
[5] = Terminal half life in rat at 20 mg/kg, iv; assay type: ADME, organism-based; parameters: dose 20 mg/kg, route intravenous; conditions: in vivo, read-out: beta t1/2 (converted)
Rattus norvegicus [6] = assay: Volume of distribution at steady state in rat at 3 mg/kg, po; assay type: ADME, organism-based; parameters: dose 3 mg/kg, route oral; conditions: in vivo
[7] = Dissociation constant, pKa of the compound; assay type: physicochemical
[8] = Terminal half life in rat at 3 mg/kg, iv; assay type: ADME, organism-based; parameters: dose 3 mg/kg, route intravenous; conditions: in vivo, read-out: beta t1/2 (converted)
[9] = Oral bioavailability in dog at 3 mg/kg; assay type: ADME, organism-based, Canis lupus familiaris; conditions: in vivo
[10] = Clearance in rat at 3 mg/kg, po; assay type: ADME, organism-based; parameters: dose 3 mg/kg, route oral; conditions: in vivo
[11] = Lipophilicity, log D of the compound; assay type: physicochemical; conditions: octanol/water
[12] = Clearance in dog at 3 mg/kg, po; assay type: ADME, organism-based, Canis lupus familiaris; parameters: dose 3 mg/kg, route oral; conditions: in vivo
[13] = Oral bioavailability in rat at 3 mg/kg; assay type: ADME, organism-based; conditions: in vivo
[14] = Terminal half life in dog at 3 mg/kg, iv; assay type: ADME, organism-based, Canis lupus familiaris; parameters: dose 3 mg/kg, route intravenous; conditions: in vivo, read-out: beta t1/2 (converted)
Canis familiaris [15] = assay: Volume of distribution at steady state in dog at 3 mg/kg, po; assay type: ADME, organism-based, Canis lupus familiaris; parameters: dose 3 mg/kg, route oral; conditions: in vivo
[16] = Oral bioavailability in dog at 20 mg/kg; assay type: ADME, organism-based, Canis lupus familiaris; conditions: in vivo
[17] = Clearance in rat at 20 mg/kg, po; assay type: ADME, organism-based; parameters: dose 20 mg/kg, route oral; conditions: in vivo
[18] = Oral bioavailability in rat at 20 mg/kg; assay type: ADME, organism-based; conditions: in vivo

Row | half-life [1] [min] | Vdss (Rattus norvegicus [2]) [L/kg] | Vdss (Canis familiaris [3]) [L/kg] | CL/F [4] [mL/min/kg] | half-life [5] [min] | Vdss (Rattus norvegicus [6]) [L/kg] | pKa [7] | half-life [8] [min] | bioavailability [9] [%] | CL/F [10] [mL/min/kg] | logD [11] | CL/F [12] [mL/min/kg] | bioavailability [13] [%] | half-life [14] [min] | Vdss (Canis familiaris [15]) [L/kg] | bioavailability [16] [%] | CL/F [17] [mL/min/kg] | bioavailability [18] [%] | Structure (SMILES)
1 | 516 | 0.7 | 1.4 | 2.4 | 222 | – | – | – | – | – | – | – | – | – | – | – | – | – | COc1ccc2c(Oc3ccc(CC(=O)Nc4cn(C)nc4C)c(OC)c3)ccnc2c1
2 | – | – | – | – | – | 0.7 | 6 | 96 | 100 | 9 | 3.3 | 11.5 | 43 | 204 | 2 | – | – | – | CCOc1cc2nccc(Oc3cnc(CC(=O)Nc4n[nH]c(CC)c4C)c(OC)c3)c2cc1OC
3 | 636 | 0.7 | 1.8 | 2.5 | 222 | – | 6.3 | – | – | – | 3.5 | – | – | – | – | 59 | 5.7 | 78 | COc1ccc2c(Oc3ccc(CC(=O)Nc4cn(C)nc4C)c(OC)c3)ccnc2c1.O=S(=O)(O)O
